Earlier results, collected in patent US20080160083A1, “COMPOSITION AND METHOD FOR TREATMENT OF PREMENSTRUAL SYMPTOMS” (priority 2007, published 2008).

Assays:
[1] = women taking daily vitamin B6 supplements for PMS whose blood levels of B6 were above normal; Dalton, Lancet 1985
[2] = all adults; Institute of Medicine 1998

SMILES: Cc1ncc(CO)c(CO)c1O [vitamin B6, 4,5-bis(hydroxymethyl)-2-methylpyridin-3-ol]
- neuropathy present (number of women) [1]: 23 of 58
- upper tolerable intake level (UL) [2]: 100 mg per day
